Reference: US8962637B2, “Bicyclic compounds and their uses as dual c-SRC/JAK inhibitors” (Debiopharm S.A., priority 2010, dated 2015)

How the values were obtained:
[1] = target: JAK2 (Homo sapiens (Human), UniProt O60674); assay: TR-FRET JAK2 kinase assay; format: biochemical; settings: ATP 10 μM; for inhibition at 0.1 µM: read-out: JAK2 % inhibition at 100 nM, 100 nM; for inhibition at 1 µM: read-out: JAK2 % inhibition at 1 μM
Protocol: (§1) Compounds were screened in the TR-FRET assay for JAK2 and c-Src kinase inhibition. Ultra light poly GT (Perkin Elmer) was used as the substrate for JAK2 and c-Src with the ATP concentration of 10 μM and 50 μM, respectively. […] The dose-response curve fitting was done using GraphPad Prism software.

[2] = test system: Mda-Mb-231 cells; assay: Cell viability assay (XTT assay), Mda-Mb-231; format: cell-based; settings: Homo sapiens, 72 hrs
Protocol: Mda-Mb-231 or A549 cells were seeded onto a 96-well micro plate. Next day compounds were added to cells and incubated for 72 hrs. Compound treatment was done in triplicates. After 72 hrs cell culture media was aspirated from the wells and XTT working solution was added and plates were incubated for 2-5 hrs. The absorbance of the samples was measured with a spectrophotometer at a wavelength of 465 nm. EC50 values were calculated using Graphpad Prism. Tumor cell lines used in the examples of the present invention were procured from ATCC. Description of the cell lines is included in the following table: […]

[3] = target: c-Src (Homo sapiens (Human), UniProt P12931); assay: TR-FRET c-Src kinase assay; format: biochemical; settings: ATP 50 μM; for inhibition at 0.1 µM: read-out: c-SRC % inhibition at 100 nM, 100 nM; for inhibition at 1 µM: read-out: c-SRC % inhibition at 1 μM
Protocol: as §1

[4] = test system: pStat3; assay: In-Cell-Western blot assay for pStat3 (ICW) in A431 cells; format: cell-based; settings: Homo sapiens, A-431, 2 hrs, read-out: pSTAT3 inhibition
Protocol: A431 cells were seeded onto a 96-well micro plate. After overnight serum starvation cells were incubated with compounds for 2 hrs. Cells were fixed with 4% paraformaldehyde in PBS and then permeabilized with 0.1% Triton X-100 in PBS (PBST). Cells were blocked with 5% BSA in PBST for 2 hrs, followed by overnight incubation with phospho Stat3 antibody. Cells were washed and incubated with europium-labeled anti-rabbit secondary antibody for 2 hrs. After washing enhancement solution was added to the wells. The micro-plate was read on the Victor instrument at the Europium setting. The Hoechst readings were used to normalize for cell number. IC50 values were calculated with the normalized europium values using Graphpad Prism.

JAK2, sequence (O60674 whole entry): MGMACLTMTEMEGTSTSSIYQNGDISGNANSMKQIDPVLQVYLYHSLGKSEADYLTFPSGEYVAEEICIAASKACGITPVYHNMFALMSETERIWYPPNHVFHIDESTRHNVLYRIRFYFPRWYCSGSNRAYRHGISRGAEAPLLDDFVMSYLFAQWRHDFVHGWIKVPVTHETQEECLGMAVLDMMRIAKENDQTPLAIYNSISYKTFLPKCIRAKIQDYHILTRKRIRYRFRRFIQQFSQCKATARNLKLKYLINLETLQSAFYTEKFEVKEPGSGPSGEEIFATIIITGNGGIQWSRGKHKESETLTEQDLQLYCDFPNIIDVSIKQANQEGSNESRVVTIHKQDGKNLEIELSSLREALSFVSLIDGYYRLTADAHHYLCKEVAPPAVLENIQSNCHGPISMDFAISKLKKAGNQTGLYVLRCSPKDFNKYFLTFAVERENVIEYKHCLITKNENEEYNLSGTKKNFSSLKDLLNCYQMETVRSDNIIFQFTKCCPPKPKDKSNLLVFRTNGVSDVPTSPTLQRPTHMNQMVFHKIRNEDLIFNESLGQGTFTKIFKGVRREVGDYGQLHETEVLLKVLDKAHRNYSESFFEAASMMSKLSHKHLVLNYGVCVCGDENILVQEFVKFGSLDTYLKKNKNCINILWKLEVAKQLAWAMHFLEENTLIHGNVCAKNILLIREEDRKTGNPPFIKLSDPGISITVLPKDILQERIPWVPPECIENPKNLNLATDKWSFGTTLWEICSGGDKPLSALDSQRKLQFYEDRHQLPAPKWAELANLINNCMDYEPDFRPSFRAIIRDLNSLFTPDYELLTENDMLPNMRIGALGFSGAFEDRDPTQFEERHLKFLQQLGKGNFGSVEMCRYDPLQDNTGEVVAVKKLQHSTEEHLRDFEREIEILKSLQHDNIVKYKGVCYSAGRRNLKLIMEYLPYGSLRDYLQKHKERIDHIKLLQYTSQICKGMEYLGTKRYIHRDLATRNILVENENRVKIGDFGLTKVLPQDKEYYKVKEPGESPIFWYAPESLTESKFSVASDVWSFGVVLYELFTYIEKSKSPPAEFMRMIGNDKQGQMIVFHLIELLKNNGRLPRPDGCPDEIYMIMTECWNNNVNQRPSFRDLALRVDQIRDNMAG
c-Src, sequence (P12931 whole entry, looked up): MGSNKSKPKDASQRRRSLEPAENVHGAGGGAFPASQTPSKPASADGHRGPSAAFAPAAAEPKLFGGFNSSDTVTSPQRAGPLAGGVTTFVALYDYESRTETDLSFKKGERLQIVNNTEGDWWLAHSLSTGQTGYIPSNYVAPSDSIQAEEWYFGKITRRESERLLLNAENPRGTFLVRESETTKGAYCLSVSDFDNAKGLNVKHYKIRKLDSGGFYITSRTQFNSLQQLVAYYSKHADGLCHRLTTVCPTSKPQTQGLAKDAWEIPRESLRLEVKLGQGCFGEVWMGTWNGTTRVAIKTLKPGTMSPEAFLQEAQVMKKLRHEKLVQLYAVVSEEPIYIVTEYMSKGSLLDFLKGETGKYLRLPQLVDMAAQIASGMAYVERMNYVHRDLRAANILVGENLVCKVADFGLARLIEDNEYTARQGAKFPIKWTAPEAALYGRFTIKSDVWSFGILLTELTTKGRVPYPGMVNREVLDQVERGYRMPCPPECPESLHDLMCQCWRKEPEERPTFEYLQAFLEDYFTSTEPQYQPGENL

## Cc1ccc(NC(=O)c2cccc(Br)c2)cc1N1CCc2nc(Nc3ccc(N4CCN(C)CC4)cc3)ncc2C1=O [Compound 58, 3-Bromo-N-(4-methyl-3-{2-[4-(4-methyl-piperazin-1-yl)-phenylamino]-5-oxo-7,8-dihydro-5H-pyrido[4,3-d]pyrimidin-6-yl}-phenyl)-benzamide]
[1]
  IC50: 44 nM
[2]
  EC50: 3820 nM
[3]
  IC50: 19 nM

## Cc1ccc(NC(=O)CC2CCCC2)cc1N1CCc2nc(Nc3ccc(OCCN4CCCC4)cc3)ncc2C1 [Compound 108, 2-Cyclopentyl-N-(4-methyl-3-{2-[4-(2-pyrrolidin-1-yl-ethoxy)-phenylamino]-7,8-dihydro-5H-pyrido[4,3-d]pyrimidin-6-yl}-phenyl)-acetamide]
[1]
  IC50: 12 nM
  inhibition at 0.1 µM: 89%
[1]; 1 μM
  inhibition at 1 µM: 98%
[2]
  EC50: 2600 nM
[3]
  IC50: 1 nM
  inhibition at 0.1 µM: 98%
  inhibition at 1 µM: 100%

## Cc1ccc(NC(=O)c2cccc(C(F)(F)F)c2)cc1N1CCc2nc(Nc3ccc(C(N)=O)nc3)ncc2C1 [Compound 119, 5-{6-[2-Methyl-5-(3-trifluoromethyl-benzoylamino)-phenyl]-5,6,7,8-tetrahydro-pyrido[4,3-d]pyrimidin-2-ylamino)-pyridine-2-carboxylic acid amide]
[1]
  IC50: 8 nM
[2]
  EC50: 380 nM
[4]
  IC50: 280 nM
[3]
  inhibition at 0.1 µM: 95%
  inhibition at 1 µM: 98%

## Cc1ccc(NC(=O)c2cc(Cl)cc(C(F)(F)F)c2)cc1N1CCc2nc(Nc3ccc(N4CCN(C)CC4)cc3)ncc2C1=O [Compound 120, 3-Chloro-N-(4-methyl-3-{2-[4-(4-methyl-piperazin-1-yl)-phenylamino]-5-oxo-7,8-dihydro-5H-pyrido[4,3-d]pyrimidin-6-yl}-phenyl)-5-trifluoromethyl-benzamide]
[1]
  IC50: 36 nM
[2]
  EC50: 2500 nM
[3]
  inhibition at 0.1 µM: 94%
  inhibition at 1 µM: 95%

## Cc1ccc(NC(=O)CC(C)C(F)(F)F)cc1N1CCc2nc(Nc3ccc(N4CCN(C)CC4)cc3)ncc2C1 (centres unmarked) [Compound 123, 4,4,4-Trifluoro-3-methyl-N-(4-methyl-3-{2-[4-(4-methyl-piperazin-1-yl)-phenylamino]-7,8-dihydro-5H-pyrido[4,3-d]pyrimidin-6-yl}-phenyl)-butyramide]
[1]
  IC50: 9 nM
[2]
  EC50: 830 nM
[4]
  IC50: 190 nM
[3]
  IC50: 3 nM

## Cc1ccc(NC(=O)c2cc(C(F)(F)F)ccn2)cc1N1CCc2nc(Nc3ccc(N4CCN(C)CC4)cc3)ncc2C1 [Compound 146, 4-Trifluoromethyl-pyridine-2-carboxylic acid (4-methyl-3-{2-[4-(4-methyl-piperazin-1-yl)-phenylamino]-7,8-dihydro-5H-pyrido[4,3-d]pyrimidin-6-yl}-phenyl)-amide]
[1]
  IC50: 5 nM
[2]
  EC50: 370 nM
[4]
  IC50: 350 nM
[3]
  IC50: 6 nM

## Cc1ccc(NC(=O)c2cccc(C(F)(F)F)c2)cc1N1CCc2nc(Nc3ccc(C(=O)NC4CCN(C)CC4)nc3)ncc2C1 [Compound 148, 5-{6-[2-Methyl-5-(3-trifluoromethyl-benzoylamino)-phenyl]-5,6,7,8-tetrahydro-pyrido[4,3-d]pyrimidin-2-ylamino}-pyridine-2-carboxylic acid (1-methyl-piperidin-4-yl)-amide]
[2]
  EC50: 34 nM
[4]
  IC50: 270 nM
[3]
  IC50: 2.4 nM
  inhibition at 0.1 µM: 99%
  inhibition at 1 µM: 99%

## Cc1ccc(NC(=O)NC2CCCC2)cc1N1CCc2nc(Nc3ccc(OCCN4CCCC4)cc3)ncc2C1 [Compound 153, 1-Cyclopentyl-3-(4-methyl-3-{2-[4-(2-pyrrolidin-1-yl-ethoxy)-phenylamino]-7,8-dihydro-5H-pyrido[4,3-d]pyrimidin-6-yl}-phenyl)-urea]
[1]
  IC50: 4 nM
[2]
  EC50: 610 nM
[3]
  inhibition at 0.1 µM: 98%
  inhibition at 1 µM: 99%

## Cc1ccc(NC(=O)CC(C)C(F)(F)F)cc1N1CCc2nc(Nc3ccc(OCCN4CCN(C)CC4)cc3)ncc2C1 (centres unmarked) [Compound 160, 4,4,4-Trifluoro-3-methyl-N-[4-methyl-3-(2-{4-[2-(4-methyl-piperazin-1-yl)-ethoxy]-phenylamino}-7,8-dihydro-5H-pyrido[4,3-d]pyrimidin-6-yl)-phenyl]-butyramide]
[1]
  IC50: 15 nM
[3]
  IC50: 66 nM

## Cc1ccc(NC(=O)CCC(F)(F)F)cc1N1CCc2nc(Nc3ccc(C(=O)N4CCN(C)CC4)cc3)ncc2C1 [Compound 164, 4,4,4-Trifluoro-N-(4-methyl-3-{2-[4-(4-methyl-piperazine-1-carbonyl)-phenylamino]-7,8-dihydro-5H-pyrido[4,3-d]pyrimidin-6-yl}-phenyl)-butyramide]
[1]
  IC50: 46 nM
  inhibition at 0.1 µM: 68%
[1]; 1 μM
  inhibition at 1 µM: 91%
[3]
  IC50: 26 nM
  inhibition at 0.1 µM: 70%
  inhibition at 1 µM: 79%

## Cc1ccc(NC(=O)c2cc(C(F)(F)F)ccn2)cc1N1CCc2nc(Nc3ccc(N4CCN(C)CC4)cc3)ncc2C1=O [Compound 166, 4-Trifluoromethyl-pyridine-2-carboxylic acid (4-methyl-3-{2-[4-(4-methyl-piperazin-1-yl)-phenylamino]-5-oxo-7,8-dihydro-5H-pyrido[4,3-d]pyrimidin-6-yl}-phenyl)-amide]
[1]
  IC50: 48 nM
  inhibition at 0.1 µM: 74%
[1]; 1 μM
  inhibition at 1 µM: 93%
[3]
  IC50: 27 nM
  inhibition at 0.1 µM: 60%
  inhibition at 1 µM: 87%

## Cc1ccc(NC(=O)c2cc(C(F)(F)F)ccn2)cc1N1CCc2nc(Nc3ccc(C(=O)N4CCN(C)CC4)cc3)ncc2C1 [Compound 167, 4-Trifluoromethyl-pyridine-2-carboxylic acid (4-methyl-3-{2-[4-(4-methyl-piperazine-1-carbonyl)-phenylamino]-7,8-dihydro-5H-pyrido[4,3-d]pyrimidin-6-yl}-phenyl)-amide]
[1]
  IC50: 5.3 nM
  inhibition at 0.1 µM: 95%
[1]; 1 μM
  inhibition at 1 µM: 97%
[4]
  IC50: 283 nM
[3]
  IC50: 27 nM
  inhibition at 0.1 µM: 97%
  inhibition at 1 µM: 98%

## Cc1ccc(NC(=O)c2cc(C(F)(F)F)ccn2)cc1N1CCc2nc(Nc3ccc(C(=O)N4CCN(C)CC4)cc3)ncc2C1=O [Compound 170, 4-Trifluoromethyl-pyridine-2-carboxylic acid (4-methyl-3-{2-[4-(4-methyl-piperazine-1-carbonyl)-phenylamino]-5-oxo-7,8-dihydro-5H-pyrido[4,3-d]pyrimidin-6-yl}-phenyl)-amide]
[1]
  IC50: 70 nM
  inhibition at 0.1 µM: 64%
[1]; 1 μM
  inhibition at 1 µM: 93%
[3]
  inhibition at 0.1 µM: 26%
  inhibition at 1 µM: 58%

## CN1CCN(c2ccc(Nc3ncc4c(n3)CCN(c3cc(NC(=O)c5cc(F)cc(C(F)(F)F)c5)ccc3Cl)C4=O)cc2)CC1 [Compound 172, N-(4-Chloro-3-{2-[4-(4-methyl-piperazin-1-yl)-phenylamino]-5-oxo-7,8-dihydro-5H-pyrido[4,3-d]pyrimidin-6-yl]-phenyl)-3-fluoro-5-trifluoromethyl-benzamide]
[1]
  inhibition at 0.1 µM: 94%
[1]; 1 μM
  inhibition at 1 µM: 97%
[2]
  EC50: 1840 nM
[3]
  inhibition at 0.1 µM: 66%
  inhibition at 1 µM: 72%

## CN1CCN(c2ccc(Nc3ncc4c(n3)CCN(c3cc(NC(=O)c5cccc(C(F)(F)F)c5)ccc3Cl)C4)cc2)CC1 [Compound 174, N-(4-Chloro-3-{2-[4-(4-methyl-piperazin-1-yl)-phenylamino]-7,8-dihydro-5H-pyrido[4,3-d]pyrimidin-6-yl}-phenyl)-3-trifluoromethyl-benzamide]
[1]
  inhibition at 0.1 µM: 94%
[1]; 1 μM
  inhibition at 1 µM: 97%
[4]
  IC50: 161 nM
[3]
  inhibition at 0.1 µM: 95%
  inhibition at 1 µM: 98%

## CNC(=O)c1ccc(Nc2ncc3c(n2)CCN(c2cc(NC(=O)c4cccc(C(F)(F)F)c4)ccc2Cl)C3)cc1 [Compound 176, N-{4-Chloro-3-[2-(4-methylcarbamoyl-phenylamino)-7,8-dihydro-5H-pyrido[4,3-d]pyrimidin-6-yl]-phenyl}- -5-trifluoromethyl-benzamide]
[1]
  IC50: 15 nM
  inhibition at 0.1 µM: 89%
[1]; 1 μM
  inhibition at 1 µM: 94%
[2]
  EC50: 330 nM
[3]
  IC50: 13 nM
  inhibition at 0.1 µM: 87%
  inhibition at 1 µM: 96%

## CNC(=O)c1ccc(Nc2ncc3c(n2)CCN(c2cc(NC(=O)c4cc(F)cc(C(F)(F)F)c4)ccc2Cl)C3)cc1 [Compound 177, N-{4-Chloro-3-[2-(4-methylcarbamoyl-phenylamino)-7,8-dihydro-5H-pyrido[4,3-d]pyrimidin-6-yl]-phenyl}-3-fluoro-5-trifluoromethyl-benzamide]
[2]
  EC50: 120 nM
[4]
  IC50: 290 nM
[3]
  IC50: 20 nM
  inhibition at 0.1 µM: 86%
  inhibition at 1 µM: 96%

## Cc1nc(Nc2ncc(C(=O)Nc3c(C)cccc3Cl)s2)cc(N2CCN(CCO)CC2)n1 [Dasatinib, reference compound]
[1]; 1 μM
  JAK2 % inhibition at 1 μM: 55%
[2]
  EC50: 44 nM
